Measured values as given in US20110191876A1, “GLYPHOSATE TOLERANT PERENNIAL RYEGRASS NAMED 'JACKLIN 501'” (J.R. SIMPLOT COMPANY, priority 2009, published 2011).

Test system: perennial ryegrass 96-3047
Experiment: glyphosate applied at termination of the Maryland turf trial, plot survival
Format: in vivo, Lolium perenne L.
Conditions: perennial ryegrass 96-3047 plot, Maryland trial 1999, glyphosate at 2-quarts per acre; only plot not killed
Description: In 1999, during the termination of the Maryland trial, 96-3047 was the only plot in the trial that was not killed when glyphosate at the rate of 2-quarts per acre was applied. Survival in the plot was estimated at 30% and plugs were pulled, coded as 99-0089, and 200 plants of 99-0089 were planted in an isolation block in the 1999 Post Falls, Id. nursery.

Structure (SMILES): O=C(O)CNCP(=O)(O)O [glyphosate, N-(phosphonomethyl) glycine]
- Survival in the plot: ~30%
